The structures appear in SMILES notation.

In one assay the test system is CD8+ OT-1 T cells. Put plainly: DC-EV in vitro assays (H-2Kb-SIINFEKL on EVs, binding to CD8+ T cells, OT-1 proliferation, IFN-γ ELISA). The format is cell-based, mouse. Particulars: EVs of OVA-loaded BMDCs treated with VitE vs vehicle. On the procedure: To generate DC-EVs, BMDCs or DC2.4 were cultured at a density of 2×10^6 cells/ml and treated with LPS (100 ng/ml) for 18 h and then treated with OVA protein (250 μg/ml) for 24 hours in DCs culture media supplemented with 10% exosome depleted FBS, which is prepared by the first ultracentrifugation at 100,000 g for 16 h, and then filtering using a 100 nm filter. Supernatants were collected from 48-72 h DCs cultures and EVs were purified by a standard differential ultracentrifugation. […] The purified exosomes were then analyzed and used for experimental procedures. […]
For FACS analysis, exosomes were conjugated with 4 μm aldehyde/sulfate latex beads (Cat. A37304, Thermo Fisher) by overnight incubation. The EVs-bound beads were incubated with glycine to block remaining binding sites and surface expression of SIINFEKL-loaded MHC-I complexes on DC-EVs was determined by staining with anti-mouse H-2K^b bound to SIINFEKL antibody. […]
To verify the physical interactions between DC-EVs and CD8^+ T cells, purified DC-EVs were stained with DiO (Cat. V22889, Thermo Fisher) in 100 μl PBS, and then washed with 10 ml PBS and pelleted by ultracentrifugation. For cell treatment, DC-EVs (10 μg/ml) (unless specified otherwise) were used on the basis of protein concentration determined by a BCA Protein Assay Kit (Pierce). […] After 72 h, the T-cell proliferation was analyzed by FACS. […]

In another assay the test system is HY19636 KPC tumor. Nature of the assay: Orthotopic HY19636 KPC PDAC tumor model. The class given is in vivo, mouse.
In a further assay the test system is RAB34. Put plainly: Immunoblot of Rab34 proteins in BMDCs. The class given is cell-based, mouse. Particulars: VitE vs vehicle, 48 hr. Background: A western blot detects proteins with antibodies after separation by electrophoresis.
Another assay concerns the target T1, SHP1 (Mus musculus, UniProt P29351).
T1 construct: We immunoprecipitated SHP1 from the vehicle or VitE-treated DC2.4 cells or BMDCs with a monoclonal SHP1 antibody; endogenous in cells
Put plainly: SHP1 tyrosine phosphatase activity in LPS-activated BMDCs. The format is cell-based. Particulars: VitE 50 μg/ml vs vehicle, LPS 100 ng/ml stimulation. The text has this: FIG. 3A: […] FIG. 3B: t-SNEs by CyTOF and quantification comparing the intensity of […]-SHP1 in TADCs from the vehicle-or VitE-treated EMT6 tumors at day 15 post-implantation. FIG. 3C: Top, SHP1 knockdown in BMDCs was effective. Bottom, CFSE-dilution analysis of OT-1 T cells co-cultured with OVA protein-pulsed BMDCs (ratio 10:1) with knockdown of SHP1 by […]6 versus siCtrl (n=3). Right, quantification of OT-1 T-cell numbers under the indicated condition. FIG. 3D: The binding of VitE to purified SHP1 is analyzed by microscale thermophoresis (MST) binding assay. […] FIG. 3E: Relative tyrosine phosphatase activity of SHP1 immunoprecipitated from LPS (100 ng/ml)-activated DC2.4 cells in the presence of indicated doses of VitE (mean of triplicates). FIG. 3F: SHP1 tyrosine phosphatase activity in LPS (100 ng/ml)-activated BMDCs (n=6) treated with vehicle-or VitE (50 μg/ml). Error bars, s.e.m. ns, no significant. *P<0.05, **P<0.01. ***P<0.001, ****P<0.0001. Bone marrow (BM) was harvested from C57BL/6J, BALB/Cj mice by flushing femurs, tibias, and humeri with DCs culture medium. […] We assessed the phosphatase activity of SHP1 by using the RediPlate 96 EnzChek Tyrosine Phosphatase Assay Kit (ThermoFisher). […] We placed beads into RediPlate wells and incubated them for 30 min at 25° C. before reading them for fluorescence. […]

Setting [1] is: VitE added to GEM+ICT vs GEM+ICT+vehicle.

T1 sequence (P29351 whole entry): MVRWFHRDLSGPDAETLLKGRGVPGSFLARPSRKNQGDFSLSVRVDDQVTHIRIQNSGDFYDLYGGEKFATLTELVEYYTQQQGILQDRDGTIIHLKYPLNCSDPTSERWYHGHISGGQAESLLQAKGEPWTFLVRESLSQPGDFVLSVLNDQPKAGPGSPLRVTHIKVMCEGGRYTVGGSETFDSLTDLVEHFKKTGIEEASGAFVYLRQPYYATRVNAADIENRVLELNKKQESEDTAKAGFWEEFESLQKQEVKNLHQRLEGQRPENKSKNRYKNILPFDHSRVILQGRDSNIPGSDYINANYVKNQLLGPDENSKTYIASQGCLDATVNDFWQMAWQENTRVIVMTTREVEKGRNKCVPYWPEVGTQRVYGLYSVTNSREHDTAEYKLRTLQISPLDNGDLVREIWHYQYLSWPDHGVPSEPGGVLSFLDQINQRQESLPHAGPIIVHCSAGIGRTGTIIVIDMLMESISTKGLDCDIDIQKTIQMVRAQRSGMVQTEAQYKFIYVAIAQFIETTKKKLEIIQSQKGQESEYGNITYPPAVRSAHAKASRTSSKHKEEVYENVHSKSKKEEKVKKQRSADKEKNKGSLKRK
Procedure for HY19636 KPC tumor: FIG. 6E: Measurement of maximal tumor diameter in HY1936 KPC tumor-bearing mice treated with gemcitabine (GEM, 25 mg/kg by i.p.) and ICT (anti-PDI/anti-CTLA4) along with vehicle or VitE (n=5). FIG. 6F: Kaplan-Meier survival curve of HY19636 KPC tumor-bearing mice treated with vehicle, GEM (gemcitabine, 25 mg/kg by i.p.), GEM+ICT (anti-PDI/anti-CTLA4) plus vehicle or VitE (n=6).
Syngeneic orthotopic PDAC tumors were established by surgical implantation. Briefly, 2,000 HY19636 KPC cells in 50 μl PBS were injected into each pancreas of the C57BL/6J mouse.
Treatments were given as single agents or in combinations with the indicated regimens for each group. VitE (D-α-Tocopherol type VI, Cat.T1539, Sigma-Aldrich) was formulated in the vehicle (10% ethanol in sterile water) and administered by oral gavage once a day at a dose of 50 mg/kg body weight (100 μl at 10 mg/ml per day), corresponding to 400 to 600 mg/day in a human weighing 60 kg, which is within the range of doses recommended for supplement and pharmacological use. VitE treatment was initiated on day 4 ending until the ending point.
For chemo combination treatment, HY19636 KPC tumor-bearing mice were treated with gemcitabine (GEM) at 25 mg/kg body weight by i.p. injection once a week from day 7 and 4T1 TNBC tumor-bearing mice were given with doxorubicin (Dox, 5 mg/kg body weight) by i.v. once a week from day 10. The chemotherapeutic doses and schedules used in this study are below or within the range of the concentrations used in the clinic after converting drug doses between species.

Turning to `Cc1c(C)c2c(c(C)c1O)CC[C@@](C)(CCC[C@H](C)CCC[C@H](C)CCCC(C)C)O2` [VitE, D-α-Tocopherol], in the assay with CD8+ OT-1 T cells, the “level of H-2Kb-SIINFEKL complexes on DC-EVs” value is “increased the level of H-2Kb-SIINFEKL complexes on DC-EVs”. Moreover, in the assay with HY19636 KPC tumor (setting [1]), the survival time entry is “prolonged the survival time” and the tumor growth entry was “effectively inhibited the HY19636KPC PDAC tumor growth”. Further, the ascites result in the assay with HY19636 KPC tumor (VitE added to GEM+ICT, day 25) was “reduced tumor-induced ascites”. Besides, the “RAB34 expression in BMDCs” value in the assay on RAB34 is recorded as “increased total RAB34 expression”. On SHP1, the “SHP1 activity in BMDCs” value is reported as “marked reduction of SHP1 function”.

The values are drawn from US20240424019A1, “SHP1 MODIFIED DENDRITIC CELLS AND EXTRACELLULAR VESICLES DERIVED THEREFROM AND ASSOCIATED METHODS” (BOARD OF REGENTS, THE UNIVERSITY OF TEXAS SYSTEM, priority 2021, published 2024).
